Measurements taken from US20240150334A1, “HSD17B13 INHIBITORS AND/OR DEGRADERS” (Pfizer Inc., priority 2022, published 2024).
Counter-ions that a name gives are not always drawn.

Experiments:
HSD17B13 enzyme = HSD17B13 enzyme (Homo sapiens (Human), UniProt Q7Z5P4); experiment: hHSD17B13 IC50 Assay (FAC beta-estradiol), purified protein enzyme activity assay with NAD(P)H-Glo luciferase readout; type: biochemical; conditions: geometric mean, 12 μM FAC beta-estradiol, 500 μM NAD+, read-out: hHSD17B13_IC50 GMean IC50
Sequence of HSD17B13 enzyme (Q7Z5P4 20-300): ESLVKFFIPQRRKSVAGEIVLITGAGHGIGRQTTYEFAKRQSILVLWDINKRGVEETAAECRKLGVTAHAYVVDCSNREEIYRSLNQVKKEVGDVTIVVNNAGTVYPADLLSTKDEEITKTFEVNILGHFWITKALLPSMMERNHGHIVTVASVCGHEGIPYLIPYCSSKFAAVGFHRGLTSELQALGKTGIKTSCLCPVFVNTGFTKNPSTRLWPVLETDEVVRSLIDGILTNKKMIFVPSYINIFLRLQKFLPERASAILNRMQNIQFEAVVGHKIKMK
Protocol: The following protocols may of course be varied by those skilled in the art. hHSD17B13 IC50 Assay (FAC beta-estradiol)
HSD17B13 enzyme inhibition potency of test compounds was determined using a purified protein biochemical enzyme activity assay, using NAD(P)H-Glo luciferase readout (Promega). HSD17B13 enzyme uses the oxidized form of nicotinamide adenine dinucleotide (NAD+) as a cofactor during metabolism of Beta-Estradiol (substrate) to […], while converting NAD+ to the reduced form (NADH). The Promega NAD(P)H-Glo™ assay is a homogeneous bioluminescent assay that generates a light signal from biochemical reactions that contain NADH (or nicotinamide adenine dinucleotide phosphate, NADPH). In the presence of NADH (or NADPH), the enzyme Reductase reduces a proluciferin reductase substrate to form luciferin. Luciferin then is quantified using Ultra-Glo™ Recombinant Luciferase (rLuciferase), and the light signal produced is proportional to the amount of NAD(P)H in the sample. […] The reaction was initiated by the addition of 2 μL/well purified HSD17B13 protein (30 nM FAC in assay buffer). Compound, substrate mix and HSD17B13 protein was incubated in the dark at room temperature for 2 hours before the addition of 3 μL/well NAD(P)H-Glo detection reagent, prepared from luciferase detection reagent and reductase/reductase substrate, as per manufacturer's instructions (Promega, G9061). Detection reagent was incubated in the dark for 1 hour at room temperature before plates were read on the Envision plate reader (Perkin Elmer) using a luminescent protocol. Data expressed as relative luminescent units (RLUs) were then normalized to control wells using Activity Base (IDBS). Zero percent effect (ZPE) was defined as RLUs generated from uninhibited HSD17B13 protein (vehicle control).

wild type human HSD17B13 = wild type human HSD17B13 (Homo sapiens (Human), UniProt Q7Z5P4); experiment: HEK_Beta-Est LCMS_IC50_Tekcel, whole-cell HEK-HSD17B13 inhibition assay, estrone production by LCMS; type: cell-based; conditions: geometric mean, HEK cells stably expressing wild type human HSD17B13, 25 μM FAC beta-estradiol, read-out: HEK_Beta-Est LCMS_IC50—Tekcel GMean IC50
Sequence of wild type human HSD17B13 (Q7Z5P4 20-300): as above
Procedure, shortened: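 Readout was LCMS quantitation of estrone made from beta-estradiol with NAD+ as cofactor. Whole HEK-HSD17B13 cells were given compound for 1 hour, then the reaction for 2 hours, both at 37° C. Product area ratios were normalized to vehicle controls as zero percent effect.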

Row | Structure (SMILES) | IC50 (HSD17B13 enzyme) [nM] | IC50 (wild type human HSD17B13) [nM]
1 | Cc1nn(C)cc1-c1ccc2cn([C@H]3CC[C@H](CNC(=O)c4cc(F)c(O)c(F)c4)CC3)nc2c1 [Example 50, N-({(1r,4r)-4-[6-(1,3-dimethyl-1H-pyrazol-4-yl)-2H-indazol-2-yl]cyclohexyl}methyl)-3,5-difluoro-4-hydroxybenzamide] | 11 | 250
2 | N#Cc1ccc(-c2ccc3cn([C@H]4CC[C@H](CNC(=O)c5cc(F)c(O)c(F)c5)CC4)nc3c2)cc1 [Example 70, N-({(1r,4r)-4-[6-(4-cyanophenyl)-2H-indazol-2-yl]cyclohexyl}methyl)-3,5-difluoro-4-hydroxybenzamide] | 3.8 | 190
3 | CS(=O)(=O)c1ccc(-c2noc([C@H]3CC[C@H](CNC(=O)c4cc(F)c(O)c(F)c4)CC3)n2)cc1 [Example 128, 3,5-difluoro-4-hydroxy-N-{[(1r,4r)-4-{3-[4-(methanesulfonyl)phenyl]-1,2,4-oxadiazol-5-yl}cyclohexyl]methyl} benzamide] | 16 | 400
4 | Cc1ccnc(-c2ccc3cn([C@H]4CC[C@H](CNC(=O)c5cc(F)c(O)c(F)c5)CC4)nc3c2)n1 [Example 53, 3,5-difluoro-4-hydroxy-N-({(1r,4r)-4-[6-(4-methylpyrimidin-2-yl)-2H-indazol-2-yl]cyclohexyl}methyl)benzamide] | 4.4 | 200
5 | O=C(NC[C@H]1CC[C@H](n2cc3ccc(-c4cscn4)cc3n2)CC1)c1cc(F)c(O)c(F)c1 [Example 69, 3,5-difluoro-4-hydroxy-N-({(1r,4r)-4-[6-(1,3-thiazol-4-yl)-2H-indazol-2-yl]cyclohexyl}methyl) benzamide] | 8.4 | 130
6 | O=C(NC[C@H]1CC[C@H](n2cc3ccc(-c4cccnc4)cc3n2)CC1)c1cc(F)c(O)c(F)c1 [Example 72, 3,5-difluoro-4-hydroxy-N-({(1r,4r)-4-[6-(pyridin-3-yl)-2H-indazol-2-yl]cyclohexyl}methyl) benzamide] | 7.8 | 170
7 | O=C(NC[C@H]1CC[C@H](n2cc3ccc(-c4cnn5c4OCC5)cc3n2)CC1)c1cc(F)c(O)c(F)c1 [Example 37, N-({(1r,4r)-4-[6-(2,3-dihydropyrazolo[5,1-b][1,3]oxazol-7-yl)-2H-indazol-2-yl]cyclohexyl}methyl)-3,5-difluoro-4-hydroxybenzamide] | 8.4 | 150
8 | O=C(NC[C@H]1CC[C@H](n2cc3ccccc3n2)CC1)c1cc(F)c(O)c(F)c1 [Example 22, 3,5-difluoro-4-hydroxy-N-{[(1r,4r)-4-(2H-indazol-2-yl)cyclohexyl]methyl} benzamide] | 20 | 390
9 | COc1ncc(-c2ccc3cn([C@H]4CC[C@H](CNC(=O)c5cc(F)c(O)c(F)c5)CC4)nc3c2)cn1 [Example 73, 3,5-difluoro-4-hydroxy-N-({(1r,4r)-4-[6-(2-methoxypyrimidin-5-yl)-2H-indazol-2-yl]cyclohexyl}methyl) benzamide] | 13 | 170
10 | O=C(NC[C@H]1CC[C@H](n2cc3ccc(-c4cncnc4)cc3n2)CC1)c1cc(F)c(O)c(F)c1F [Example 9, 2,3,5-Trifluoro-4-hydroxy-N-({(1r,4r)-4-[6-(pyrimidin-5-yl)-2H-indazol-2-yl]cyclohexyl}methyl)benzamide] | 13 | 170
11 | O=C(NC[C@H]1CC[C@H](n2cc(-c3ccc4nccnc4c3)nn2)CC1)c1cc(F)c(O)c(F)c1 [Example 18, 3,5-Difluoro-4-hydroxy-N-({(1r,4r)-4-[4-(quinoxalin-6-yl)-1H-1,2,3-triazol-1-yl]cyclohexyl}methyl)benzamide] | 18 | 420
12 | O=C(NC[C@H]1CC[C@H](n2cc3ccc(-c4cnn(C5COC5)c4)cc3n2)CC1)c1cc(F)c(O)c(F)c1 [Example 45, 3,5-difluoro-4-hydroxy-N-{[(1r,4r)-4-{6-[1-(oxetan-3-yl)-1H-pyrazol-4-yl]-2H-indazol-2-yl}cyclohexyl]methyl} benzamide] | 5.4 | 220
13 | CC(C)(O)c1cncc(-c2ccc3cn([C@H]4CC[C@H](CNC(=O)c5cc(F)c(O)c(F)c5)CC4)nc3c2)c1 [Example 59, 3,5-difluoro-4-hydroxy-N-{[(1r,4r)-4-{6-[5-(2-hydroxypropan-2-yl)pyridin-3-yl]-2H-indazol-2-yl}cyclohexyl]methyl}benzamide] | 11 | 470
14 | Cn1cc(-c2ccc3cn([C@H]4CC[C@H](CNC(=O)c5cc(F)c(O)c(F)c5)CC4)nc3c2)c(F)n1 [Example 51, 3,5-difluoro-N-({(1r,4r)-4-[6-(3-fluoro-1-methyl-1H-pyrazol-4-yl)-2H-indazol-2-yl]cyclohexyl}methyl)-4-hydroxybenzamide] | 6.5 | 120

Next, values leading:

Row | IC50 (HSD17B13 enzyme) [nM] | IC50 (wild type human HSD17B13) [nM] | Structure (SMILES)
15 | 22 | 410 | O=C(NC[C@H]1CC[C@H](c2nc(-c3cnc(C(F)(F)F)cn3)no2)CC1)c1cc(F)c(O)c(F)c1 [Example 139, 3,5-difluoro-4-hydroxy-N-{[(1r,4r)-4-{3-[5-(trifluoromethyl)pyrazin-2-yl]-1,2,4-oxadiazol-5-yl}cyclohexyl]methyl} benzamide]
16 | 18 | 320 | COc1ncc(-c2cc3nn([C@H]4CC[C@H](CNC(=O)c5cc(F)c(O)c(F)c5)CC4)cc3cn2)cn1 [Example 8, 3,5-Difluoro-4-hydroxy-N-({(1r,4r)-4-[6-(2-methoxypyrimidin-5-yl)-2H-pyrazolo[4,3-c]pyridin-2-yl]cyclohexyl}methyl)benzamide]
17 | 14 | 440 | O=C(NC[C@H]1CC[C@H](n2cc3ccc(Cl)cc3n2)CC1)c1cc(F)c(O)cc1F [Example 144, N-{[(1r,4r)-4-(6-chloro-2H-indazol-2-yl)cyclohexyl]methyl}-2,5-difluoro-4-hydroxybenzamide, trifluoroacetate salt]
18 | 16 | 150 | O=C(NC[C@]12CC[C@](c3nc(-c4cnc(C(F)(F)F)cn4)no3)(CC1)CC2)c1cc(F)c(O)cc1F [Example 179, 2,5-difluoro-4-hydroxy-N-[(4-{3-[5-(trifluoromethyl)pyrazin-2-yl]-1,2,4-oxadiazol-5-yl}bicyclo[2.2.2]octan-1-yl)methyl]benzamide]
19 | 49 | 220 | O=C(NC[C@]12CC[C@](n3cc4ccccc4n3)(CC1)CC2)c1cc(F)c(O)c(F)c1 [Example 202, 3,5-difluoro-4-hydroxy-N-{[4-(2H-indazol-2-yl)bicyclo [2.2.2]octan-1-yl]methyl}benzamide]
20 | 9.5 | 450 | Cn1ncc(-c2ccc3cn([C@H]4CC[C@H](CNC(=O)c5cc(F)c(O)c(F)c5)CC4)nc3c2)c1C(F)(F)F [Example 46, 3,5-difluoro-4-hydroxy-N-{[(1r,4r)-4-{6-[1-methyl-5-(trifluoro-methyl)-1H-pyrazol-4-yl]-2H-indazol-2-yl}cyclohexyl]methyl}benzamide]
21 | 16 | 230 | O=C(NC[C@H]1CC[C@H](n2cc3cc(C(F)(F)F)ccc3n2)CC1)c1cc(F)c(O)c(F)c1F [Example 182, 2,3,5-trifluoro-4-hydroxy-N-({(1r,4r)-4-[5-(trifluoromethyl)-2H-indazol-2-yl]cyclohexyl}methyl) benzamide]
22 | 17 | 430 | O=C(NC[C@H]1CC[C@H](n2cc3cc(C(F)(F)F)ncc3n2)CC1)c1cc(F)c(O)c(F)c1 [Example 147, 3,5-difluoro-4-hydroxy-N-({(1r,4r)-4-[5-(trifluoromethyl)-2H-pyrazolo[3,4-c]pyridin-2-yl]cyclohexyl}methyl) benzamide, ammonium salt]
23 | 14 | 300 | O=C(NC[C@H]1CC[C@H](n2cc3ccc(Cl)cc3n2)CC1)c1cc(F)c(O)c(F)c1F [Example 25, N-{[(1r,4r)-4-(6-chloro-2H-indazol-2-yl)cylohexyl]methyl}-2,3,5-trifluoro-4-hydroxybenzamide]
24 | 12 | 180 | O=C(NC[C@H]1CC[C@H](n2cc3ccc(-c4ncccn4)cc3n2)CC1)c1cc(F)c(O)c(F)c1F [Example 27, 2,3,5-trifluoro-4-hydroxy-N-({(1r,4r)-4-[6-(pyrimidin-2-yl)-2H-indazol-2-yl]cyclohexyl}methyl) benzamide]
25 | 15 | 2700 | Cc1ccc(-c2noc([C@H]3CC[C@H](CNC(=O)c4cc(F)c(O)c(F)c4)CC3)n2)nn1 [Example 211, 3,5-difluoro-4-hydroxy-N-({(1r,4r)-4-[3-(6-methyl-pyridazin-3-yl)-1,2,4-oxadiazol-5-yl]cyclohexyl}methyl) benzamide]
